Tests used:
Mus musculus [1] = experiment: Tested for antiTrypanosomal activity against Trypanosoma rhodesiense in mice at dose of 26.5 mg/kg expressed as mean survival time (MST) or cures; format: functional
Mus musculus [2] = experiment: Tested for antitrypanosomal activity against trypanosoma rhodesiense in mice at dose of 424 mg/kg expressed as mean survival time (MST) or cures; format: functional
Mus musculus [3] = experiment: Tested for antiTrypanosomal activity against Trypanosoma rhodesiense in mice at dose of 106 mg/kg expressed as mean survival time (MST) or cures; format: functional
Mus musculus [4] = experiment: Tested for antiTrypanosomal activity against Trypanosoma rhodesiense in mice at dose of 40 mg/kg expressed as mean survival time (MST) or cures; format: functional
Mus musculus [5] = experiment: Tested for antiTrypanosomal activity against Trypanosoma rhodesiense in mice at dose of 160 mg/kg expressed as mean survival time (MST) or cures; format: functional
Mus musculus [6] = experiment: Tested for antiTrypanosomal activity against Trypanosoma rhodesiense in mice at dose of 640 mg/kg expressed as mean survival time (MST) or cures, T - toxic death; format: functional, organism-based; design: dose 640 mg/kg
Mus musculus [7] = experiment: Tested for antiTrypanosomal activity against Trypanosoma rhodesiense in mice at dose of 640 mg/kg expressed as mean survival time (MST) or cures; format: functional
Mus musculus [8] = experiment: Tested for antiTrypanosomal activity against Trypanosoma rhodesiense in mice at dose of 2.5 mg/kg expressed as mean survival time (MST) or cures; format: functional
Mus musculus [9] = experiment: Tested for antiTrypanosomal activity against Trypanosoma rhodesiense in mice at dose of 1.25 mg/kg expressed as mean survival time (MST) or cures; format: functional
Mus musculus [10] = experiment: Tested for antiTrypanosomal activity against Trypanosoma rhodesiense in mice at dose of 20 mg/kg expressed as mean survival time (MST) or cures; format: functional
Mus musculus [11] = experiment: Tested for antiTrypanosomal activity against Trypanosoma rhodesiense in mice at dose of 5 mg/kg expressed as mean survival time (MST) or cures; format: functional
Mus musculus [12] = experiment: Tested for antiTrypanosomal activity against Trypanosoma rhodesiense in mice at dose of 80 mg/kg expressed as mean survival time (MST) or cures; format: functional
Mus musculus [13] = experiment: Tested for antiTrypanosomal activity against Trypanosoma rhodesiense in mice at dose of 320 mg/kg expressed as mean survival time (MST) or cures; format: functional
Mus musculus [14] = experiment: Tested for antiTrypanosomal activity against Trypanosoma rhodesiense in mice at dose of 10 mg/kg expressed as mean survival time (MST) or cures; format: functional
Mus musculus [15] = experiment: Tested for antiTrypanosomal activity against Trypanosoma rhodesiense in mice at dose of 424 mg/kg expressed as mean survival time (MST) or cures T - toxic death; format: functional, organism-based; design: dose 424 mg/kg
Mus musculus [16] = experiment: Tested for antiTrypanosomal activity against Trypanosoma rhodesiense in mice at dose of 26.5 mg/kg expressed as mean survival time (MST) or cures T - toxic death; format: functional, organism-based; design: dose 26.5 mg/kg
Mus musculus [17] = experiment: Tested for antiTrypanosomal activity against Trypanosoma rhodesiense in mice at dose of 106 mg/kg expressed as mean survival time (MST) or cures T - toxic death; format: functional, organism-based; design: dose 106 mg/kg
Mus musculus [18] = experiment: Tested for antiTrypanosomal activity against Trypanosoma rhodesiense in mice at dose of 320 mg/kg expressed as mean survival time (MST) or cures T - toxic death; format: functional, organism-based; design: dose 320 mg/kg
Mus musculus [19] = experiment: Tested for antiTrypanosomal activity against Trypanosoma rhodesiense in mice at dose of 160 mg/kg expressed as mean survival time (MST) or cures T - toxic death; format: functional, organism-based; design: dose 160 mg/kg
Mus musculus [20] = experiment: Tested for antiTrypanosomal activity against Trypanosoma rhodesiense in mice at dose of 3.3 mg/kg expressed as mean survival time (MST) or cures; format: functional
Mus musculus [21] = experiment: Tested for antitrypanosomal activity against trypanosoma rhodesiense in mice at dose of 53 mg/kg expressed as mean survival time (MST) or cures; format: functional
Mus musculus [22] = experiment: Tested for antiTrypanosomal activity against Trypanosoma rhodesiense in mice at dose of 212 mg/kg expressed as mean survival time (MST) or cures; format: functional
Mus musculus [23] = experiment: Tested for antiTrypanosomal activity against Trypanosoma rhodesiense in mice at dose of 6.6 mg/kg expressed as mean survival time (MST) or cures; format: functional
Mus musculus [24] = experiment: Tested for antiTrypanosomal activity against Trypanosoma rhodesiense in mice at dose of 13.3 mg/kg expressed as mean survival time (MST) or cures; format: functional
Mus musculus [25] = experiment: Tested for antiTrypanosomal activity by screening against Trypanosoma rhodesiense in mice at dose of 424 mg/kg expressed as mean survival time (MST) or cures T - toxic death; format: functional, organism-based; design: dose 424 mg/kg
Mus musculus [26] = experiment: Tested for antiTrypanosomal activity against Trypanosoma rhodesiense in mice at dose of 53 mg/kg expressed as mean survival time (MST) or cures; format: functional

| Compound | Cures (Mus musculus [7]) | Cures (Mus musculus [8]) | Cures (Mus musculus [4]) | Cures (Mus musculus [10]) | Cures (Mus musculus [11]) | Cures (Mus musculus [5]) | Cures (Mus musculus [12]) | Cures (Mus musculus [13]) | Cures (Mus musculus [14]) | further results |
| --- | --- | --- | --- | --- | --- | --- | --- | --- | --- | --- |
| Cl.Cl.c1cc(-c2cnc(-c3ccc(C4=NCCN4)cc3)o2)ccc1C1=NCCN1 | – | – | – | – | – | – | – | – | – | Delta MST (Mus musculus [1]): 0.2 days; Delta MST (Mus musculus [2]): 1.6 days; Delta MST (Mus musculus [3]): 0.4 days |
| Cl.Cl.N=C(N)c1ccc(-c2nnc(-c3ccc(C(=N)N)cc3)o2)cc1 | – | – | – | – | – | – | – | – | – | Delta MST (Mus musculus [4]): 0.8 days; Delta MST (Mus musculus [5]): 0.8 days; Delta MST (Mus musculus [6]): Toxic death |
| N=C(Nc1ccc(NC(=N)c2ccccc2)o1)c1ccccc1 | 5 | 4 | 5 | 5 | 5 | 5 | 5 | 5 | 5 | Cures (Mus musculus [9]): 4 |
| N=C(N)c1ccc(OCCCCCOc2ccc(C(=N)N)cc2)cc1 [PENTAMIDINE] | 5 | 4 | 5 | 5 | 5 | 5 | 5 | 5 | 5 | Cures (Mus musculus [9]): 1 |
| CC1CNC(c2ccc(-c3nnc(-c4ccc(C5=NC(C)CN5)cc4)o3)cc2)=N1 (configuration not stated) | – | – | – | – | – | – | – | – | – | Delta MST (Mus musculus [15]): Toxic death; Delta MST (Mus musculus [16]): Toxic death; Delta MST (Mus musculus [17]): Toxic death |
| Cl.Cl.c1cc(-c2nnc(-c3ccc(C4=NCCN4)cc3)o2)ccc1C1=NCCN1 | – | – | – | – | – | – | – | – | – | Delta MST (Mus musculus [4]): 0.8 days; Delta MST (Mus musculus [5]): 1 days; Delta MST (Mus musculus [6]): Toxic death |
| Cl.Cl.c1cc(-c2nnc(-c3ccc(C4=NCCCN4)cc3)s2)ccc1C1=NCCCN1 | – | – | – | – | – | – | – | – | – | Delta MST (Mus musculus [4]): 1.1 days; Delta MST (Mus musculus [15]): Toxic death; Delta MST (Mus musculus [16]): Toxic death; Delta MST (Mus musculus [17]): Toxic death |
| Cl.Cl.c1cc(-c2ccc(-c3ccc(C4=NCCCN4)cc3)nn2)ccc1C1=NCCCN1 | – | – | 4 | 4 | – | – | 1 | – | 1 | Delta MST (Mus musculus [17]): Toxic death |
| Cl.Cl.c1cc(-c2cnc(-c3ccc(C4=NCCCN4)cc3)o2)ccc1C1=NCCCN1 | – | 3 | 5 | 5 | 3 | – | 2 | – | 5 | Delta MST (Mus musculus [9]): 2.7 days; Delta MST (Mus musculus [18]): Toxic death; Delta MST (Mus musculus [6]): Toxic death; Delta MST (Mus musculus [19]): Toxic death |
| Cl.Cl.N=C(N)c1ccc(-c2nnc(-c3ccc(C(=N)N)cc3)s2)cc1 | – | – | – | – | – | – | – | – | – | Cures (Mus musculus [1]): 5; Delta MST (Mus musculus [9]): 2 days; Cures (Mus musculus [20]): 3; Cures (Mus musculus [21]): 5; Cures (Mus musculus [22]): 5; Cures (Mus musculus [23]): 4; Cures (Mus musculus [24]): 5; Cures (Mus musculus [2]): 2; Cures (Mus musculus [3]): 5 |
| N=C(N)c1ccc(/C=C/c2ccc(C(=N)N)cc2O)cc1 [HYDROXYSTILBAMIDINE] | 5 | 5 | 5 | 5 | 5 | 5 | 5 | 5 | 5 | Cures (Mus musculus [9]): 2 |
| Cl.Cl.N=C(N)c1ccc(-c2cnc(-c3ccc(C(=N)N)cc3)o2)cc1 | 5 | 3 | 5 | 5 | 5 | 5 | 5 | 5 | 5 | Delta MST (Mus musculus [9]): 1.8 days |
| CC1CNC(c2ccc(-c3cnc(-c4ccc(C5=NC(C)CN5)cc4)o3)cc2)=N1.Cl.Cl (configuration not stated) | – | – | – | – | – | – | – | – | – | Delta MST (Mus musculus [1]): 2.2 days; Delta MST (Mus musculus [22]): 6.8 days; Delta MST (Mus musculus [24]): 1 days; Delta MST (Mus musculus [25]): Toxic death; Delta MST (Mus musculus [26]): 2.4 days; Delta MST (Mus musculus [3]): 5.2 days |
| N=C(N)c1ccc(/C=C/c2ccc(C(=N)N)cc2)cc1 [STILBAMIDINE] | 5 | 5 | 5 | 5 | 5 | 5 | 5 | 5 | 5 | Cures (Mus musculus [9]): 2 |
| Cl.Cl.c1cc(-c2ccc(-c3ccc(C4=NCCN4)cc3)nn2)ccc1C1=NCCN1 | – | – | – | – | – | 3 | 1 | 5 | – | Delta MST (Mus musculus [4]): 1.1 days; Delta MST (Mus musculus [10]): 1.1 days; Delta MST (Mus musculus [14]): 0.3 days |
| Cl.Cl.c1cc(-c2nnc(-c3ccc(C4=NCCCN4)cc3)o2)ccc1C1=NCCCN1 | – | – | – | – | – | – | – | – | – | Cures (Mus musculus [1]): 5; Delta MST (Mus musculus [23]): 1.3 days; Cures (Mus musculus [24]): 1; Delta MST (Mus musculus [15]): Toxic death; Delta MST (Mus musculus [17]): Toxic death |

Reference: ChEMBL document CHEMBL1121442, “Synthesis and antitrypanosomal activity of some bis(4-guanylphenyl) five- and six-membered ring heterocycles” (1980)
